Reference: PubChem BioAssay AID1259407 (Chemical Carcinogenesis Research Information System (CCRIS), 2018)
Active and inactive are the calls of the source. No rule for the calls is given here.

System: CCRIS mutagenicity, Ames/micronucleus/aberration tests
Experiment: CCRIS mutagenicity studies
[1] = Test System: AMES SALMONELLA TYPHIMURIUM, Strain/Indicator: TA98, Metabolic Activation: NONE, Method: PREINCUBATION
[2] = Test System: AMES SALMONELLA TYPHIMURIUM, Strain/Indicator: TA98, Metabolic Activation: NONE, Method: STANDARD PLATE
[3] = Test System: AMES SALMONELLA TYPHIMURIUM, Strain/Indicator: TA100, Metabolic Activation: NONE, Method: STANDARD PLATE
[4] = Test System: AMES SALMONELLA TYPHIMURIUM, Strain/Indicator: TA100, Metabolic Activation: NONE, Method: PREINCUBATION
[5] = Test System: AMES SALMONELLA TYPHIMURIUM, Strain/Indicator: TA97A, Metabolic Activation: NONE, Method: PREINCUBATION
[6] = Test System: AMES SALMONELLA TYPHIMURIUM, Strain/Indicator: TA98, Metabolic Activation: RAT, LIVER, S-9, AROCLOR 1254, Method: STANDARD PLATE
[7] = Test System: AMES SALMONELLA TYPHIMURIUM, Strain/Indicator: TA100, Metabolic Activation: RAT, LIVER, S-9, AROCLOR 1254, Method: STANDARD PLATE
[8] = Test System: AMES SALMONELLA TYPHIMURIUM, Strain/Indicator: TA102, Metabolic Activation: NONE, Method: PREINCUBATION

`CC(=O)Nc1ccc(-c2ccc(NO)cc2)cc1` was tested, and the mutagenic call (Test System: CHINESE HAMSTER OVARY, Strain/Indicator: CHO-K1-BH4 (HGPRT), Metabolic Activation: NONE, Method: SUSPENSION) was “active; positive”.

For `Cc1cc([N+](=O)[O-])cc2ccccc12`, the mutagenic call [1] was “active; positive”.

In the case of `C[C@@H]1CC[C@@]2(OC1)O[C@H]1C[C@H]3[C@@H]4CC=C5C[C@@H](O[C@@H]6O[C@H](CO)[C@@H](O)[C@H](O[C@@H]7O[C@H](CO)[C@@H](O)[C@H](O)[C@H]7O)[C@H]6O[C@@H]6O[C@@H](C)[C@H](O)[C@@H](O)[C@H]6O)CC[C@]5(C)[C@H]4CC[C@]3(C)[C@H]1[C@@H]2C`, the mutagenic call [2] is reported as “inactive; negative”, the mutagenic call (Test System: AMES SALMONELLA TYPHIMURIUM, Strain/Indicator: TA98, Metabolic Activation: RAT, LIVER, S-9, PHENOBARBITAL, Method: STANDARD PLATE) is reported as “inactive; negative” and the mutagenic call [3] is reported as “inactive; negative”. The mutagenic call (Test System: AMES SALMONELLA TYPHIMURIUM, Strain/Indicator: TA100, Metabolic Activation: RAT, LIVER, S-9, PHENOBARBITAL, Method: STANDARD PLATE) was “inactive; negative”.

In the case of `COC(=O)c1ccco1`, the mutagenic call [2] is reported as “inactive; negative” and the mutagenic call [3] is reported as “inactive; negative”.

With `NC(=O)c1ccccc1C(N)=O` the mutagenic call (Test System: AMES SALMONELLA TYPHIMURIUM, Strain/Indicator: TA98, Metabolic Activation: HAMSTER, LIVER, S-9, AROCLOR 1254 (10%), Method: PREINCUBATION) was “inactive; negative”, the mutagenic call [1] was “inactive; negative” and the mutagenic call (Test System: AMES SALMONELLA TYPHIMURIUM, Strain/Indicator: TA98, Metabolic Activation: RAT, LIVER, S-9, AROCLOR 1254 (10%), Method: PREINCUBATION) was “inactive; negative”. For the same compound, the mutagenic call (Test System: AMES SALMONELLA TYPHIMURIUM, Strain/Indicator: TA100, Metabolic Activation: HAMSTER, LIVER, S-9, AROCLOR 1254 (10%), Method: PREINCUBATION) was “inactive; negative”, the mutagenic call [4] was “inactive; negative” and the mutagenic call (Test System: AMES SALMONELLA TYPHIMURIUM, Strain/Indicator: TA100, Metabolic Activation: RAT, LIVER, S-9, AROCLOR 1254 (10%), Method: PREINCUBATION) was “inactive; negative”. The mutagenic call (Test System: AMES SALMONELLA TYPHIMURIUM, Strain/Indicator: TA1535, Metabolic Activation: HAMSTER, LIVER, S-9, AROCLOR 1254 (10%), Method: PREINCUBATION) was “inactive; negative”, the mutagenic call (Test System: AMES SALMONELLA TYPHIMURIUM, Strain/Indicator: TA1535, Metabolic Activation: NONE, Method: PREINCUBATION) was “inactive; negative” and the mutagenic call (Test System: AMES SALMONELLA TYPHIMURIUM, Strain/Indicator: TA1535, Metabolic Activation: RAT, LIVER, S-9, AROCLOR 1254 (10%), Method: PREINCUBATION) was “inactive; negative”. The mutagenic call (Test System: AMES SALMONELLA TYPHIMURIUM, Strain/Indicator: TA1537, Metabolic Activation: HAMSTER, LIVER, S-9, AROCLOR 1254 (10%), Method: PREINCUBATION) was “inactive; negative”, the mutagenic call (Test System: AMES SALMONELLA TYPHIMURIUM, Strain/Indicator: TA1537, Metabolic Activation: NONE, Method: PREINCUBATION) was “inactive; negative” and the mutagenic call (Test System: AMES SALMONELLA TYPHIMURIUM, Strain/Indicator: TA1537, Metabolic Activation: RAT, LIVER, S-9, AROCLOR 1254 (10%), Method: PREINCUBATION) was “inactive; negative”.

`O=[N+]([O-])c1ccc2ccc3ccc([N+](=O)[O-])cc3c2c1` was tested, and the mutagenic call (Test System: AMES SALMONELLA TYPHIMURIUM, Strain/Indicator: TA98(1,8-DNP6), Metabolic Activation: NONE, Method: STANDARD PLATE) was “active; positive”, the mutagenic call (Test System: AMES SALMONELLA TYPHIMURIUM, Strain/Indicator: TA98(NR), Metabolic Activation: NONE, Method: STANDARD PLATE) was “active; positive” and the mutagenic call [2] was “active; positive”. For the same compound, the mutagenic call [3] was “active; positive”, the mutagenic call (Test System: AMES SALMONELLA TYPHIMURIUM, Strain/Indicator: YG1021, Metabolic Activation: NONE, Method: STANDARD PLATE) was “active; positive” and the mutagenic call (Test System: AMES SALMONELLA TYPHIMURIUM, Strain/Indicator: YG1024, Metabolic Activation: NONE, Method: STANDARD PLATE) was “active; positive”. The mutagenic call (Test System: AMES SALMONELLA TYPHIMURIUM, Strain/Indicator: YG1026, Metabolic Activation: NONE, Method: STANDARD PLATE) was “active; positive” and the mutagenic call (Test System: AMES SALMONELLA TYPHIMURIUM, Strain/Indicator: YG1029, Metabolic Activation: NONE, Method: STANDARD PLATE) was “active; positive”.

For `Cc1ccc2nc3c(ccc4ccccc43)c(C)c2c1`, the mutagenic call [5] was “inactive; negative”, the mutagenic call [1] was “inactive; negative” and the mutagenic call [6] was “active; positive”. For the same compound, the mutagenic call [4] was “inactive; negative”, the mutagenic call [7] was “active; positive” and the mutagenic call [8] was “active; positive”. For the same compound, the mutagenic call (Test System: E. COLI, Strain/Indicator: WP2 UVRA, Metabolic Activation: HAMSTER, LIVER, S-9, AROCLOR 1254, Method: STANDARD PLATE) was “inactive; negative”, the mutagenic call (Test System: E. COLI, Strain/Indicator: WP2 UVRA, Metabolic Activation: HAMSTER, LIVER, S-9, Method: STANDARD PLATE) was “inactive; negative” and the mutagenic call (Test System: E. COLI, Strain/Indicator: WP2 UVRA, Metabolic Activation: MOUSE, LIVER, S-9, AROCLOR 1254, Method: STANDARD PLATE) was “inactive; negative”. The mutagenic call (Test System: E. COLI, Strain/Indicator: WP2 UVRA, Metabolic Activation: MOUSE, LIVER, S-9, Method: STANDARD PLATE) was “inactive; negative”, the mutagenic call (Test System: E. COLI, Strain/Indicator: WP2 UVRA, Metabolic Activation: NONE, Method: STANDARD PLATE) was “inactive; negative” and the mutagenic call (Test System: E. COLI, Strain/Indicator: WP2 UVRA, Metabolic Activation: RAT, LIVER, S-9, AROCLOR 1254, Method: STANDARD PLATE) was “inactive; negative”. The mutagenic call (Test System: E. COLI, Strain/Indicator: WP2 UVRA, Metabolic Activation: RAT, LIVER, S-9, Method: STANDARD PLATE) was “inactive; negative”.

In the case of `CC(C)N1C(=O)c2ccccc2NS1(=O)=O`, the mutagenic call (Test System: AMES SALMONELLA TYPHIMURIUM, Strain/Indicator: TA97, Metabolic Activation: NONE, Method: STANDARD PLATE) is reported as “inactive; negative”, the mutagenic call (Test System: AMES SALMONELLA TYPHIMURIUM, Strain/Indicator: TA97, Metabolic Activation: RAT, LIVER, S-9, DELOR 103, Method: STANDARD PLATE) is reported as “inactive; negative” and the mutagenic call [2] is reported as “inactive; negative”. The mutagenic call (Test System: AMES SALMONELLA TYPHIMURIUM, Strain/Indicator: TA98, Metabolic Activation: RAT, LIVER, S-9, DELOR 103, Method: STANDARD PLATE) was “inactive; negative”, the mutagenic call [3] was “inactive; negative” and the mutagenic call (Test System: AMES SALMONELLA TYPHIMURIUM, Strain/Indicator: TA100, Metabolic Activation: RAT, LIVER, S-9, DELOR 103, Method: STANDARD PLATE) was “inactive; negative”. The mutagenic call (Test System: AMES SALMONELLA TYPHIMURIUM, Strain/Indicator: TA1535, Metabolic Activation: NONE, Method: STANDARD PLATE) was “inactive; negative”, the mutagenic call (Test System: AMES SALMONELLA TYPHIMURIUM, Strain/Indicator: TA1535, Metabolic Activation: RAT, LIVER, S-9, DELOR 103, Method: STANDARD PLATE) was “inactive; negative” and the mutagenic call (Test System: AMES SALMONELLA TYPHIMURIUM, Strain/Indicator: TA1538, Metabolic Activation: NONE, Method: STANDARD PLATE) was “inactive; negative”. For the same compound, the mutagenic call (Test System: AMES SALMONELLA TYPHIMURIUM, Strain/Indicator: TA1538, Metabolic Activation: RAT, LIVER, S-9, DELOR 103, Method: STANDARD PLATE) was “inactive; negative”.

`O=c1ccc2c(cc3ccc4cccc5ccc2c3c45)c1=O` was tested, and the mutagenic call [5] was “active; positive”, the mutagenic call [1] was “inactive; negative” and the mutagenic call [4] was “inactive; negative”. For the same compound, the mutagenic call [8] was “inactive; negative” and the mutagenic call (Test System: AMES SALMONELLA TYPHIMURIUM, Strain/Indicator: TA104, Metabolic Activation: NONE, Method: PREINCUBATION) was “inactive; negative”.

With `C[As](O)O` the mutagenic call (End Point: In vitro micronucleus, Test System: Human peripheral lymphocytes, Metabolic Activation: None) was “active; positive in all subjects only at highest dose” and the mutagenic call (Test System: Mouse lymphoma, Strain/Indicator: L5178Y (TK+/TK-), Metabolic Activation: None, Method: Microwell) was “active; positive”.

With `O[C@H]1C=Cc2c(ccc3cc4c5c(ccc4cc23)[C@H](O)[C@@H](O)C=C5)[C@@H]1O` the mutagenic call [7] was “inactive; negative”.

For `Oc1ccc(O)c(-c2ccccc2)c1`, the mutagenic call (Test System: CHINESE HAMSTER V-79, Strain/Indicator: V-79 (HGPRT)/6-THIOGUANINE, Metabolic Activation: NONE) was “inactive; negative”.

For `CCC1(C(C)O)OC1(C(N)=O)C(=O)OC` (centres undefined), the mutagenic call (Test System: AMES SALMONELLA TYPHIMURIUM, Strain/Indicator: TA98, Metabolic Activation: NONE, Method: DISK ASSAY) was “inactive; negative”, the mutagenic call [2] was “inactive; negative” and the mutagenic call (Test System: AMES SALMONELLA TYPHIMURIUM, Strain/Indicator: TA98, Metabolic Activation: RAT, LIVER, S-9, AROCLOR 1254, Method: DISK ASSAY) was “inactive; negative”. The mutagenic call [6] was “inactive; negative”.
